Series [1] is described as follows: In vivo pharmacokinetics (PK) study in rats. Also noted: species or system SD rats. How it is done:
SD rats, weighing 180˜220 g, were randomly divided into groups of three […] each after 3 to 5 days' acclimatization, and a series of the compounds were administered intragastrically to each group at a dose of 20 mg/kg.
The test animals (SD rats) were fasted for 12 hours before administration and fed 4 hours after the administration. They were free to access water before and after the experiment.
After the administration, about 0.2 mL of blood from the orbits was collected at 0 min, 15 min, 30 min, 1 h, 2 h, 4 h, 6 h, 8 h, 10 h, 24 h, 30 h, and 48 h. Within 30 minutes after anticoagulation with EDTA-K2, the plasma was separated by centrifugation at 4° C. and 4000 rpm for 10 minutes. Immediately after collecting all plasma, it was stored at −20° C. for testing.
50 μL of the plasma sample to be tested and standard curve sample were pipetted, and then thereto was added 500 μL of an acetonitrile solution containing an internal standard (diazepam 20 mg/mL). The resulting mixture was oscillated and mixed uniformly for 5 min, and then centrifugated at 12000 rpm for 10 min. 75 μL supernatant was pipetted, and 75 μL ultrapure water was added thereto for dilution, and mixed evenly. 1 μL of the resulting solution was pipetted for LC/MS/MS determination.

Series [2] can be described thus: In vivo pharmacokinetics (PK) study in mice. To be noted: ICR mice, po 30 mg/kg. How it is done:
ICR mice, weighing 18-20 g, were randomly divided into groups of three mice each after 3 to 5 days' acclimatization, and a series of the compounds were administered intragastrically to each group at a dose of 30 mg/kg. The test animals (ICR mice) were fasted for 12 hours before the administration and fed 4 hours after the administration. They were free to access water before and after the experiment. After the intragastric administration, about 0.1 mL of blood was collected from the orbits. Within 30 minutes after anticoagulation with EDTA-K2, the plasma was separated by centrifugation at 4° C. and 4000 rpm for 10 minutes. Immediately after collecting all plasma, it was stored at −20° C. for testing. 20 μL of the plasma sample to be tested and standard curve sample were pipetted, and then thereto was added 200 μL of an acetonitrile solution containing an internal standard (diazepam 20 mg/mL). The resulting mixture was oscillated and mixed uniformly for 5 min, and then centrifugated at 12000 rpm for 10 min. 75 μL supernatant was pipetted, and 75 μL ultrapure water was added thereto for dilution, and mixed evenly. 1 μL of the resulting solution was pipetted for LC/MS/MS determination.

Setting [3] is: rat, plasma, SD rats, PO 20 mg/kg.

The results in this text go back to patent publication US12116356B2, “N-heterocyclic five-membered ring-containing capsid protein assembly inhibitor, pharmaceutical composition thereof, and use thereof” (CHIA TAI TIANQING PHARMACEUTICAL GROUP CO., LTD., priority 2018, dated 2024).

In series [1] (SD rats, PO 20 mg/kg vs IV 5 mg/kg), `Cc1c(C(=O)Nc2ccc(F)c(C#N)c2)c(C)n(C)c1C(=O)C(=O)N[C@@H](C)C(F)(F)F` [Example 12] showed an F of 57%. In addition, the half-life in series [1] (SD, rat, in vivo, po, 20 mg/kg) was 3.65 h. In series [1] (setting [3]), the AUC(0-inf) turned out to be 62300 ng·h/mL and the Cmax was determined as 5020 ng/mL. The AUC(0-t) in series [1] (rat, plasma, SD rats, PO 20 mg/kg, read-out: AUC(0-48 h)) was determined as 62000 ng·h/mL.

Regarding `Cc1c(C(=O)Nc2ccc(F)c(C#N)c2)c(C)n(C)c1C(=O)C(=O)NC1(C(F)(F)F)COC1` [Example 25, N-(3-cyano-4-fluorophenyl)-1,2,4-trimethyl-5-(2-oxo-2-((3-(trifluoromethyl)oxetan-3-yl)amino)acetyl)-1H-pyrrole-3-carboxamide], the “Liver AUC(0-8 h)” value in series [2] (0.25 h, 3 h, 8 h) is recorded as 315435 ng/g. The “Plasma AUC(0-8 h)” value in series [2] (blood at 0.25 h, 3 h, 8 h) is reported as 37732 ng/mL. For the same molecule, the Kp in series [2] (mouse, liver/blood, AUC(0-8 h), read-out: Liver to blood ratio) worked out at 8.36.

One may read the half-life as the time in which the quantity being followed falls by half. Lower therefore signals rapid decline. Usually AUC(0-inf) stands for the area under the concentration-time curve extrapolated to infinity. Low values mean less exposure, high ones more exposure. Usually Cmax stands for the maximum level reached in the sampled fluid or tissue.
